Laboratory results from paper PMC3504386 (Chemmedchem, 2010).

Biological target: T1, CTP synthetase (CTPS) (Trypanosoma brucei, UniProt Q4GZ95)
T1 construct: gene TB927.1.1240
Assay: coupled spectrophotometric enzyme assay (pyruvate kinase/lactate dehydrogenase), […] min pre-incubation on ice
Format: biochemical

T1 sequence (Q4GZ95 entry or part of it): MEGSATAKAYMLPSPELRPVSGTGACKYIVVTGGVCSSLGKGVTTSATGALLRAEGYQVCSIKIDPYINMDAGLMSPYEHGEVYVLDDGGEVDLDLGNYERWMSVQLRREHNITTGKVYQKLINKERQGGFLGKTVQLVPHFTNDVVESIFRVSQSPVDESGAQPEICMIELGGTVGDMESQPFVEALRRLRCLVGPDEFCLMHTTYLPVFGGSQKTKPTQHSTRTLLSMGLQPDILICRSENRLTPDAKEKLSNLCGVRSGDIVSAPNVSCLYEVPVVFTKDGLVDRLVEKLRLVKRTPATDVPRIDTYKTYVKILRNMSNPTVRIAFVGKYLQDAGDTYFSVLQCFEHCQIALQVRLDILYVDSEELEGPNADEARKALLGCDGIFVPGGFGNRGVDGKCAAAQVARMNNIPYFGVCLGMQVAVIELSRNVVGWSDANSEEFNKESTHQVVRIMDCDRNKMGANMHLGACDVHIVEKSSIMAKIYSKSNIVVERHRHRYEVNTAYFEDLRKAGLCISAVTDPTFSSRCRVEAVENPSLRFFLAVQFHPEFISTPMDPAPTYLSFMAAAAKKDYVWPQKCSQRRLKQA

Row | SMILES | IC50 [µM]
1 | N[C@H](C(=O)O)[C@@H]1CC(Br)=NO1 [compound 2, (αS,5S)-α-amino-3-bromo-4,5-dihydroisoxazol-5-yl acetic acid] | 0.098 ± 0.01
2 | N[C@H](C(=O)O)[C@@H]1CC(Cl)=NO1 [compound 1, Acivicin] | 0.32 ± 0.025
